Structures can show the parent of a compound that is named as a salt.
Target: human GPR119 (Homo sapiens (Human), UniProt Q8TDV5)
Experiment: AlphaScreen cAMP assay in Min-6/hGPR119 cells (GPR119 activation, intracellular cAMP)
Type: cell-based
Details: MIN6 cells stably transfected with human GPR119; 45 minutes' incubation at RT; AlphaScreen cAMP Assay Kit
Protocol: The compounds of formula I according to the invention are GPR119 agonists. The effect of the compounds on the activation of GPR119 and on the stimulation of intracellular cAMP concentration is determined using the AlphaScreen cAMP Assay Kit (Cat. No. #6760625R) made by PerkinElmer.
MIN6 cells [Miyazaki J et al. Endocrinology. 1990 July; 127(1):126-32] were stably transfected with an expression vector for human GPR119 cDNA (Acc. No. NP_848566). Min-6/hGPR119 cells are cultured in DMEM, 10% FBS, 50 μM β-mercaptoethanol, 0.3 mg/mL Geniticin, 2 mM GlutaMAX at 37° C. 5% CO2. For the assay, the cells are placed in Optiplates (white, 384-well, 160W-barcoded, TC, sterile with lid, Cat. No. #6007688 (Perkin Elmer); 10000 cells/well; 50 μl). The plates covered with lids are then incubated for 24 hours at 37° C./5% CO2.
After the medium has been sucked out of the wells completely, 10 μl of the test compound are added, the compounds are diluted beforehand with stimulating buffer (140 mM NaCl, 3.6 mM KCl, 0.5 mM NaH2PO4, 0.5 mM MgSO4, 1.5 mM CaCl2, 10 mM Hepes, 5 mM NaHCO3; pH 7.4. 0.5 mM IBMX and 0.1% BSA, the final DMSO concentration is 1%). After 45 minutes' incubation at RT, the cAMP concentrations are determined using the AlphaScreen cAMP Assay Kit (Cat. No. #6760625R from PerkinElmer).

Chain of human GPR119 (Q8TDV5 whole entry): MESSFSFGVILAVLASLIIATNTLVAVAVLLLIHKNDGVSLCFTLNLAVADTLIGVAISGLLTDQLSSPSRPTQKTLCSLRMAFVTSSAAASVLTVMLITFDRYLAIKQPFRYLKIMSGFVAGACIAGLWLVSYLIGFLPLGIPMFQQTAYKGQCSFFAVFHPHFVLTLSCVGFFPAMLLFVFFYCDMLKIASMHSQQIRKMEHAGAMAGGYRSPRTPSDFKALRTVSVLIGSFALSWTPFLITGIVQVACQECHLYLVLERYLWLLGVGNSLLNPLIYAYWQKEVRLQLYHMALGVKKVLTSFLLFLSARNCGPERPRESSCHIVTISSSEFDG

EC50 [nM] | SMILES
462 | CCC1CC(=O)NN=C1c1ccc2nc(-c3ccc(C(C)C)cc3)oc2c1 (stereo not drawn) [Example 175, 5-ethyl-6-[2-(4-isopropyl-phenyl)-benzoxazol-6-yl]-4,5-dihydro-2H-pyridazin-3-one]
134 | CCC[C@H]1C(=O)NN=C(c2ccc3nc(-c4cccs4)oc3c2)[C@@H]1C (relative stereo) [Example 183, trans-5-methyl-4-propyl-6-(2-thiophen-2-yl-benzoxazol-6-yl)-4,5-dihydro-2H-pyridazin-3-one]
92 | CCC[C@@H]1C(=O)NN=C(c2ccc3nc(-c4ccc(OC)cc4)oc3c2)[C@H]1C (relative stereo) [Example 174, trans-6-[2-(4-methoxy-phenyl)-benzoxazol-6-yl]-5-methyl-4-propyl-4,5-dihydro-2H-pyridazin-3-one]
306 | CC[C@@H]1C(=O)NN=C(c2ccc3nc(-c4ccccc4)oc3c2)[C@H]1C (relative stereo) [Example 126, trans-4-ethyl-5-methyl-6-(2-phenyl-benzoxazol-6-yl)-4,5-dihydro-2H-pyridazin-3-one]
> 10000 | CCC1CC(=O)NN=C1c1ccc2nc(-c3ccc(OCC4CCNCC4)cc3)oc2c1 (stereo not drawn) [Example 71, 4-{4-[6-(4-ethyl-6-oxo-1,4,5,6-tetrahydro-pyridazin-3-yl)-benzoxazol-2-yl]-phenoxymethyl}-piperidine as hydrochloride]
47 | CCC1CC(=O)NN=C1c1ccc2nc(-c3ccc(OC[C@@H]4CCCN4C(=O)OC(C)(C)C)cc3)oc2c1 (stereo partly drawn) [Example 226]
106 | CCC1CC(=O)NN=C1c1ccc2nc(-c3ccc(OCCN(CC)C(C)C)cc3)oc2c1 (stereo not drawn) [Example 215, 5-ethyl-6-(2-{4-[2-(ethyl-isopropyl-amino)-ethoxy]-phenyl}-benzoxazol-6-yl)-4,5-dihydro-2H-pyridazin-3-one]
293 | CCC1CC(=O)NN=C1c1ccc2nc(-c3ccc(OCCCN4CCCCC4)cc3)oc2c1 (stereo not drawn) [Example 161, 5-ethyl-6-{2-[4-(3-piperidin-1-yl-propoxy)-phenyl]-benzoxazol-6-yl}-4,5-dihydro-2H-pyridazin-3-one x HCl]
7700 | O=C1NN=C([C@H]2CCc3nc(-c4ccccc4)oc3C2)[C@H]2C[C@@H]12 [Example 131, (1R,6S)-5-((S)-2-phenyl-4,5,6,7-tetrahydro-benzoxazol-6-yl)-3,4-diaza-bicyclo[4.1.0]hept-4-en-2-one]
1150 | COc1ccccc1-c1nc2ccc(C3=NNC(=O)CC3C)cc2o1 (stereo not drawn) [Example 86, 6-[2-(2-methoxy-phenyl)-benzoxazol-6-yl]-5-methyl-4,5-dihydro-2H-pyridazin-3-one]
235 | CCC1CC(=O)NN=C1c1ccc2nc(-c3ccc(OCCN4[C@@H](C)CC[C@@H]4C)cc3)oc2c1 (stereo in doubt) [Example 250, 6-(2-{4-[2-((2R,5R)-trans-2,5-dimethylpyrrolidin-1-yl)-ethoxy]-phenyl}-benzoxazol-6-yl)-5-ethyl-4,5-dihydro-2H-pyridazin-3-one]
22 | CC[C@@H]1CC(=O)NN=C1c1ccc2nc(-c3ccc(OCCN(C(C)C)C(C)C)cc3)oc2c1 [Example 259, (R)-6-{2-[4-(2-diisopropylamino-ethoxy)-phenyl]-benzoxazol-6-yl}-5-ethyl-4,5-dihydro-2H-pyridazin-3-one]
848 | CCC1CC(=O)NN=C1c1ccc2nc(-c3ccc(OCC4CCCCN4C)cc3)oc2c1 (stereo not drawn) [Example 233, 5-ethyl-6-{2-[4-(1-methyl-2-piperidin-2-yl-methoxy)-phenyl]-benzoxazol-6-yl}-4,5-dihydro-2H-pyridazin-3-one]
1310 | O=C1CC(C2CC2)C(N2CCc3nc(-c4ccccc4)oc3C2)=NN1 (stereo not drawn) [Example 138, 5-cyclopropyl-6-(2-phenyl-6,7-dihydro-4H-oxazolo[5,4-c]pyridin-5-yl)-4,5-dihydro-2H-pyridazin-3-one]
9120 | CCC1CC(=O)NN=C1c1ccc2nc(-c3ccc(OCCN4CCN(C(C)=O)CC4)cc3)oc2c1 (stereo not drawn) [Example 162, 6-(2-{4-[2-(4-acetyl-piperazin-1-yl)-ethoxy]-phenyl}-benzoxazol-6-yl)-5-ethyl-4,5-dihydro-2H-pyridazin-3-one]
4000 | CC1CC(=O)NN=C1c1ccc2nc(-c3ccc(C#N)cc3)oc2c1 (stereo not drawn) [Example 122, 4-[6-(4-methyl-6-oxo-1,4,5,6-tetrahydro-pyridazin-3-yl)-benzoxazol-2-yl]-benzonitrile]
73 | CC[C@@H]1CC(=O)NN=C1c1ccc2nc(-c3ccc(OCC(C)N4CCCCC4)cc3)oc2c1 (stereo partly drawn) [Example 237, 5(R)-ethyl-6-{2-[4-(2-piperidin-1-yl-propoxy)-phenyl]-benzoxazol-6-yl}-4,5-dihydro-2H-pyridazin-3-one]

EC50 [nM] | SMILES
241 | C=CCOc1ccc(-c2nc3ccc(C4=NNC(=O)CC4CC)cc3o2)cc1 (stereo not drawn) [Example 213, 6-[2-(4-allyloxy-phenyl)-benzoxazol-6-yl]-5-ethyl-4,5-dihydro-2H-pyridazin-3-one]
1960 | CCC1CC(=O)NN=C1c1ccc2nc(-c3ccc(OCc4ccc(S(C)(=O)=O)cc4)cc3)oc2c1 (stereo not drawn) [Example 158, 5-ethyl-6-{2-[4-(4-methanesulphonyl-benzoxy)-phenyl]-benzoxazol-6-yl}-4,5-dihydro-2H-pyridazin-3-one]
191 | CCC1CC(=O)NN=C1c1ccc2nc(-c3ccc(OC[C@H]4CCCN4C(C)C)cc3)oc2c1 (stereo partly drawn) [Example 241, 5-ethyl-6-{2-[4-(1-isopropyl-R-pyrrolidin-2-yl-methoxy)-phenyl]-benzoxazol-6-yl}-4,5-dihydro-2H-pyridazin-3-one]
345 | CCC1CC(=O)NN=C1c1ccc2nc(-c3ccc(OCc4ccncc4)cc3)oc2c1 (stereo not drawn) [Example 46, 5-ethyl-6-{2-[4-(pyridin-4-ylmethoxy)-phenyl]-benzoxazol-6-yl}-4,5-dihydro-2H-pyridazin-3-one]
51 | CC[C@@H]1CC(=O)NN=C1c1ccc2nc(-c3ccc(OC4CCOCC4)cc3)oc2c1 [Example 195, (R)-5-ethyl-6-{2-[4-(tetrahydro-pyran-4-yloxy)-phenyl]-benzoxazol-6-yl}-4,5-dihydro-2H-pyridazin-3-one]
53 | CCC[C@@H]1C(=O)NN=C(c2ccc3nc(-c4ccc(OCCN(C(C)C)C(C)C)cc4)oc3c2)[C@H]1C (relative stereo) [Example 170, trans-6-{2-[4-(2-diisopropylamino-ethoxy)-phenyl]-benzoxazol-6-yl}-5-methyl-4-propyl-4,5-dihydro-2H-pyridazin-3-one]
157 | O=C1NN=C(c2ccc3nc(-c4ccccc4F)oc3c2)C2CC12 (stereo not drawn) [Example 20, 5-[2-(2-fluoro-phenyl)-benzoxazol-6-yl]-3,4-diaza-bicyclo[4.1.0]hept-4-en-2-one]
3460 | O=C1CCC(c2ccc3nc(N4CCSCC4)oc3c2)=NN1 [Example 119, 6-(2-thiomorpholin-1-yl-benzoxazol-6-yl)-4,5-dihydro-2H-pyridazin-3-one]
4180 | CCC1CC(=O)NN=C1c1ccc2nc(-c3ccc(OCc4cncn4C)cc3)oc2c1 (stereo not drawn) [Example 42, 5-ethyl-6-{2-[4-(3-methyl-3H-imidazol-4-ylmethoxy)-phenyl]-benzoxazol-6-yl}-4,5-dihydro-2H-pyridazin-3-one]
8720 | CC1CC(=O)NN=C1c1ccc2nc(-c3ccc(CN)cc3)oc2c1 (stereo not drawn) [Example 124, 6-[2-(4-aminomethyl-phenyl)-benzoxazol-6-yl]-5-methyl-4,5-dihydro-2H-pyridazin-3-one]
41 | CCC1OC(=O)NN=C1c1ccc2nc(-c3ccccc3)oc2c1 (stereo in doubt) [Example 79, (S)-6-ethyl-5-(2-phenyl-benzoxazol-6-yl)-3,6-dihydro-[1,3,4]oxadiazin-2-one]
415 | CC1CC(=O)NN=C1c1ccc2nc(-c3ccccc3Cl)oc2c1 (stereo not drawn) [Example 89, 6-[2-(2-chloro-phenyl)-benzoxazol-6-yl]-5-methyl-4,5-dihydro-2H-pyridazin-3-one]
173 | CCC[C@H]1C(=O)NN=C(c2ccc3nc(-c4ccsc4)oc3c2)[C@@H]1C (relative stereo) [Example 187, trans-5-methyl-4-propyl-6-(2-thiophen-3-yl-benzoxazol-6-yl)-4,5-dihydro-2H-pyridazin-3-one]
290 | CCC1CC(=O)NN=C1c1ccc2nc(-c3ccc(C(C)OC)cc3)oc2c1 (stereo not drawn) [Example 180, 5-ethyl-6-{2-[4-(1-methoxy-ethyl)-phenyl]-benzoxazol-6-yl}-4,5-dihydro-2H-pyridazin-3-one]
6720 | CCC[C@H]1C(=O)NN=C(c2ccc3nc(-c4ccccc4)oc3c2)[C@H]1C (relative stereo) [Example 129, cis-5-methyl-6-(2-phenyl-benzoxazol-6-yl)-4-propyl-4,5-dihydro-2H-pyridazin-3-one]
1630 | O=C1NN=C([C@@H]2CCc3nc(-c4ccccc4)oc3C2)[C@@H]2C[C@H]12 [Example 134, (1S,6R)-5-((R)-2-phenyl-4,5,6,7-tetrahydro-benzoxazol-6-yl)-3,4-diaza-bicyclo[4.1.0]hept-4-en-2-one]

From US8772323B2, “Benzoxazole- and tetrahydrobenzoxazole-substituted pyridazinones as GPR119 agonists” (Boehringer Ingelheim International GmbH, priority 2010, dated 2014)
